Measurements: patent publication US7998981B2, “Aminoaryl sulphonamide derivatives as functional 5-HT6 ligands” (Suven Life Sciences Limited, priority 2005, dated 2011)

Tests used:
Human 5-HT6 Receptor = molecular target: T1, Human 5-HT6 Receptor (Homo sapiens, UniProt P50406); test: Nova Screen binding assay for human 5-HT6 receptor ([3H]LSD radioligand binding); conditions: human recombinant receptor expressed in HEK293 cells, [3H]LSD 1.5 nM; for inhibition at 0.1 µM: read-out: % Inhibition at 100 nM, radioligand binding data at 5ht6R (h); for Ki: 60 minutes at 37° C., read-out: Ki, radioligand binding data at 5ht6R (h)
T1 construct: host or cells: HEK293
Description: Nova Screen Binding Assay for Human 5-HT6 Receptor
Pharmacological data Compounds can be tested according to the following the procedures.
Receptor source: Human recombinant expressed in HEK293 cells
Radioligand: [^3H]LSD (60-80 Ci/mmol)
Final ligand concentration—[1.5 nM]
Non-specific determinant: Methiothepin mesylate—[0.1 μM]
Reference compound: Methiothepin mesylate
Positive control: Methiothepin mesylate
Incubation conditions: Reactions were carried out in 50 mM TRIS-HCl (pH 7.4) containing 10 mM MgCl2, 0.5 mM EDTA for 60 minutes at 37° C. The reaction was terminated by rapid vacuum filtration onto glass fiber filters. Radioactivity trapped onto the filters was determined and compared to control values in order to ascertain any interactions of test compound(s) with the cloned serotonin -5HT6 binding site.
Literature Reference: Monsma F. J. Jr., et al., Molecular Cloning and Expression of Novel Serotonin Receptor with High Affinity for Tricyclic Psychotropic Drugs. Mol. Pharmacol. (43): 320-327 (1993).

Male Wistar rats = test: Object recognition task model; assay type: in vivo, rat; conditions: orally or i.p. one hour before T1 and T2; T2 24 hour after T1; example 6 at 10 mg/Kg orally (FIG. 1)
Description: Object Recognition Task Model
The cognition-enhancing properties of compounds of this invention were estimated using a model of animal cognition: the object recognition task model.
Male wistar rats (230-280 g) obtained from N I.N. (National Institute of Nutrition, Hyderabad, India) were used as an experimental animal. Four animals were housed in each cage. Animals were kept on 20% food deprivation before one day and given water ad libitum throughout the experiment, and maintained on a 12 h light/dark cycle. Also the rats were habituated to individual arenas for 1 hour in absence of any objects.
One group of 12 rats received vehicle (1 mL/Kg) orally and another set of animals received compound of the formula (I) either orally or i.p., before one hour of the familiar (T1) and choice trial (T2). The experiment was carried out in a 50×50×50 Cm open field made up of acrylic. In the familiarization phase, (T1), the rats were placed individually in the open field for 3 min., in which two identical objects (plastic bottles, 12.5 Cm height×5.5 Cm diameter) covered in yellow masking tape alone (a1 and a2) were positioned in two adjacent corners, 10 Cm. from the walls. After 24 hour of the (T1) trial for long-term memory test, the same rats were placed in the same arena as they were placed in T1 trial. […]

Adult male Wistar rats = test: Passive avoidance (single-trial, step through, light-dark paradigm); assay type: in vivo, rat; conditions: 10 mg/Kg oral dose; recall 24 h, 72 h and 7 day post-training (FIG. 2)
Text: Passive Avoidance Apparatus Animals were trained in a single-trial, step through, light-dark passive avoidance paradigm. The training apparatus consisted of a chamber 300 mm in length, 260 mm wide, and 270 mm in height, constructed to established designs. The front and top were transparent, allowing the experimenter to observe the behavior of the animal inside the apparatus. The chamber was divided into two compartments, separated by a central shutter that contained a small opening 50 mm wide and 75 mm high set close to the front of the chamber. The smaller of the compartments measured […] in width and contained a low-power (6V) illumination source. The larger compartment measured 210 mm in width and was not illuminated. […] A resistance range of […] was calculated for a control group of rats and the apparatus was calibrated accordingly. […] Latency to enter the dark chamber was recorded (usually <20 s), and having completely entered the dark compartment an inescapable foot shock of 0.75 mA for 3 s was administered to the animal. […] Recall of this inhibitory stimulus was evaluated 24 h, 72 h and on 7 day post-training by returning the animal into the light chamber and recording their latency to enter the dark chamber, a criterion time of 300 s was employed.

T1 sequence (P50406 whole entry): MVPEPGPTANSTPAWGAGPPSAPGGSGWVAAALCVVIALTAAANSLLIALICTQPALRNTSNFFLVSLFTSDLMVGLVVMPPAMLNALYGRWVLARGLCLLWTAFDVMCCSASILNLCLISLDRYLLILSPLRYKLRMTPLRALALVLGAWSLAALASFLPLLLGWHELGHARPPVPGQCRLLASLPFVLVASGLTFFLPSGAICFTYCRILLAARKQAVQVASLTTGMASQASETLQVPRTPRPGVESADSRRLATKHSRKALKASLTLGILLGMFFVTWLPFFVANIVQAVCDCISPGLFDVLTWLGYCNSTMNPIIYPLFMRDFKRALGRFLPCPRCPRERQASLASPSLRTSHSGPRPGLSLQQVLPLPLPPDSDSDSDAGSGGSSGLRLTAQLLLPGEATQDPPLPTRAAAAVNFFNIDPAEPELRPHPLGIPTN

inhibition at 0.1 µM (Human 5-HT6 Receptor; 100 nM) [%]	Ki (Human 5-HT6 Receptor) [nM]	SMILES	novel object recognition (exploration time with novel object, discrimination index) (Male Wistar rats)	latency to reach the dark zone (Adult male Wistar rats)	% Inhibition at 100 nM, radioligand binding data at 5ht6R (h) (Human 5-HT6 Receptor; 100 nM) [%]
93.2	7	CN1CCC(Nc2cccc(S(=O)(=O)n3ccc4cc(F)ccc43)c2)CC1 [Example 6, 1-[3-(1-Methylpiperidin-4-yl)amino]benzenesulfonyl-5-fluoroindole]	positive effects	significant increase in latency	
82.2	12.5	COc1ccc2c(ccn2S(=O)(=O)c2cccc(NC3CCN(C)CC3)c2)c1 [Example 2, 1-[3-(1-Methylpiperidin-4-yl)amino]benzenesulfonyl-5-methoxyindole]			
92.2	10.3	CN1CCC(Nc2cccc(S(=O)(=O)n3ccc4cc(Br)ccc43)c2)CC1 [Example 4, 1-[3-(1-Methylpiperidin-4-yl)amino]benzenesulfonyl-5-bromoindole]			

Second part, the compound before the results:

SMILES	inhibition at 0.1 µM (Human 5-HT6 Receptor; 100 nM) [%]	Ki (Human 5-HT6 Receptor) [nM]	novel object recognition (exploration time with novel object, discrimination index) (Male Wistar rats)	latency to reach the dark zone (Adult male Wistar rats)	% Inhibition at 100 nM, radioligand binding data at 5ht6R (h) (Human 5-HT6 Receptor; 100 nM) [%]
COc1ccc2c(ccn2S(=O)(=O)c2ccc(C)c(NC3CCN(C)CC3)c2)c1 [Example 10, 1-[3-(1-Methylpiperidin-4-yl)amino-4-methyl]benzenesulfonyl-5-methoxyindole]	85.3	20.9			
COc1ccc(S(=O)(=O)n2ccc3ccccc32)cc1NC1CCN(C)CC1 [Example 17, 1-[3-(1-Methylpiperidin-4-yl)amino-4-methoxy]benzenesulfonyl-1H-indole]	101	1.29			
CN1CCC(Nc2cc(S(=O)(=O)n3ccc4ccccc43)ccc2F)CC1 [Example 25, 1-[3-(1-Methylpiperidin-4-yl)amino-4-Fluoro]benzenesulfonylindole]					99.33
CN1CCC(Nc2cccc(S(=O)(=O)n3ccc4ccccc43)c2)CC1 [Example 1, 1-[3-(1-Methylpiperidin-4-yl)amino]benzenesulfonyl-1H-indole]	96.8	3.19			
